Residues, ends and D or L forms follow the SMILES beside them. *: point of attachment. Cbz = O=C(OCc1ccccc1)*
How the values were obtained:
NF-κB [1] = test: Western immunoblot of p65, p50, IκB in myometrial cell extracts; type: cell-based, human; details: myometrial cells, IL-1β 15 min
Method: (§1) Western immunoblots of nuclear or cytosolic protein extracts from (A) myometrial cells, (B) L− amnion cells, and (C) L+ amnion cells treated with 15dPGJ2 or vehicle for 2 h±IL-1β stimulation (15 min). Blots probed with antibodies against p65, p50 or IκBα.
Western immunoblots of nuclear or cytosolic protein extracts from myometrial cells treated with PGA1 or vehicle for 2 h followed by IL-1β stimulation (15 min). Blots probed with antibodies against p65 or IκBa.
Western immunoblots of cytosolic extracts from myometrial cells (A) treated with 15dPGJ2 for 2h±IL1b for 15 min; probed for IKK, and (B) treated with […] 15dPGJ2, […] MG132 or vehicle for 2 h, ±IL-1β for 15 min; probed for IκBα.
(A) NF-κB-DNA binding was measured by EMSA in nuclear protein extracts from myometrial cells pre-treated with vehicle, 15d-PGJ2 or PGA1 for 2 h, followed by stimulation with IL-1β (1 ng/ml) for 15 min. Antibodies against p50 and p65 were used for supershift analysis. (B) Myometrial cells were transiently transfected with a NF-κB-LUC reporter and a β-gal reporter plasmid, pre-treated with vehicle or PGA1 for 2 h, and stimulated with IL-1β (1 ng/ml) for 6 h. Luciferase activity was normalized for β-gal reporter readout. Values are presented as the mean±SEM obtained for each treatment done in triplicate. Western blot analysis of nuclear p65 and p50 expression in myometrial cells treated with (C) PGA1 or (D) 15d-PGJ2 for 2 h, followed by stimulation with IL-1β (1 ng/ml) for 15 min. (E) Western blot analysis of whole cell lysates from myometrial cells treated with 15d-PGJ2 or 9,10-dihydro-15d-PGJ2 for 2 h, followed by stimulation with IL-1β (1 ng/ml) for 15 min. Membranes were probed with antibodies against p65 and Ser 536-phosphorylated p65.
(§2) Myometrial tissue was collected at term from the upper margin of uterine incision at the time of lower segment caesarean section either prior to the onset of labour (L−) or […] (L+). L+ samples were collected by Dr Mark Johnson and Dr S Soorrana at Chelsea & Westminster Hospital. Myometrial tissue was dissected, rinsed in PBS, and digested in serum-free DMEM containing 15 mg/ml collagenase 1A (Sigma), 15 mg/ml collagenase X, and 50 mg/ml bovine serum albumin for 45 min at 37° C. The cell suspension was filtered through a cell strainer, centrifuged at 400 g for 5 min, and the pellet re-suspended and plated out in DMEM, 10% FCS (Helena BioScience), 1% L-glutainine, 1% penicillin-streptomycin. Cells were used between passage numbers 1-4.
(§3) Nuclear and cytosolic protein extracts were obtained from cultured amnion cells as described by Schreiber et al (1989). For nuclear/cytosolic fractionation, confluent cell monolayers were scraped and lysed using a buffer containing 10 mM HEPES, 10 mM KCl, 0.1 mM EDTA, 0.1 mM EGTA, 2 mM DTT, 1% (v/v) NP-40 and complete protease inhibitor tablets (CPIs, Roche), diluted to manufacturer's instructions. Cell lysates were incubated on ice for 10 min and NP-40 added to a final concentration of 1% (v/v). Lysates were vortexed for 10 secs and centrifuged for 30 secs at 4° C., 12000 g. The supernatants were retained as the cytosolic protein extracts. The pellets were resuspended in buffer containing 10 mM HEPES, 10 mM KCl, 0.1 mM EDTA, 0.1 mM EGTA, 2 mM DTT, 400 mM NaCl, 1% NP-40 (v/v) and CPIs. Samples were shaken vigorously for 15 min in an ice bath. The nuclear protein extracts were obtained in the supernatant following a 5 min centrifugation at 4° C., 12000 g.
Protein samples (20-70 μg) were mixed with Laemmli sample buffer (1:1) containing β-mercaptoethanol (5%), and boiled for 5 min. Proteins were then separated by SDS-PAGE (12-14% gels) and transferred onto PVDF membrane (Amersham Pharmacia Biotech). The membranes were blocked overnight in 5% non-fat milk prepared in PBS-T buffer, at 4° C. The blots were incubated with the primary antibody in 1% non-fat milk in PBS-T buffer for 1 h, and washed three times (10 min each) in PBS-T with vigorous shaking. […]

PPAR-γ = biological target: T1, PPAR-γ (Homo sapiens, UniProt P37231); details: as stated from the literature; cited from earlier work
T1 sequence (P37231 1-505): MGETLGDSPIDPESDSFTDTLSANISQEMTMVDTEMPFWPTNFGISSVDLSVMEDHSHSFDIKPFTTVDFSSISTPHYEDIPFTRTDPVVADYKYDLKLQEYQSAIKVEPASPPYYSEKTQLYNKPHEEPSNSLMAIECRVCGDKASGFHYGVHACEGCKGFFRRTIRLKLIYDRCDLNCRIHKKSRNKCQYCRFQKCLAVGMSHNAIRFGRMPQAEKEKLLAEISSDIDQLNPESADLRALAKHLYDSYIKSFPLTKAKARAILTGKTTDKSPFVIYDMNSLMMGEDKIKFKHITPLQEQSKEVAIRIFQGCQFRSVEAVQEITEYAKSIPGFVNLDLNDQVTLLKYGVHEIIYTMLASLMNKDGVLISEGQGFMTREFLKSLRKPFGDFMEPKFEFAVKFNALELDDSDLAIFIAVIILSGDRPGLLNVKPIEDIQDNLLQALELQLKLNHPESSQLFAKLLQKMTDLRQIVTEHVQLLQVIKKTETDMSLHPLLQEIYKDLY

NF-κB [2] = biological target: T2, NF-κB (Homo sapiens, UniProt P19838+Q04206); test: EMSA of NF-κB DNA binding in nuclear extracts of treated amnion cells; type: cell-based
T2 construct: nuclear protein extracts from myometrial cells; endogenous in cells; host or cells: primary human myometrial cells (term, passage 1-4)
T2 sequence (Q04206 whole entry): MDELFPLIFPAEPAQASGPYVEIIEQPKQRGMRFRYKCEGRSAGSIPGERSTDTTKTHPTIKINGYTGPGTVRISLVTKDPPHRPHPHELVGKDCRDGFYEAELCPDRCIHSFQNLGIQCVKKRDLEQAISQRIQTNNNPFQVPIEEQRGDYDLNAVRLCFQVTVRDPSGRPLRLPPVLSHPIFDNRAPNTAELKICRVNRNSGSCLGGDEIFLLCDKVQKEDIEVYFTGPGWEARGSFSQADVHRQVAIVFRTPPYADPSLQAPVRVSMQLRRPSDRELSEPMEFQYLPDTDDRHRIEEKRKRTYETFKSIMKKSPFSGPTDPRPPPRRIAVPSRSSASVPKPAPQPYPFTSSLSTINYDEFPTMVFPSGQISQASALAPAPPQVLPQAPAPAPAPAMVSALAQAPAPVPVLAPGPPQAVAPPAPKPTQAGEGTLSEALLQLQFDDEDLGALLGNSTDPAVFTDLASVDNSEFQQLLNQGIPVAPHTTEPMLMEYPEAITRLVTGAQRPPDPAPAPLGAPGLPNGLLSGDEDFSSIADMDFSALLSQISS
T2 sequence (P19838 1-433 limits assumed): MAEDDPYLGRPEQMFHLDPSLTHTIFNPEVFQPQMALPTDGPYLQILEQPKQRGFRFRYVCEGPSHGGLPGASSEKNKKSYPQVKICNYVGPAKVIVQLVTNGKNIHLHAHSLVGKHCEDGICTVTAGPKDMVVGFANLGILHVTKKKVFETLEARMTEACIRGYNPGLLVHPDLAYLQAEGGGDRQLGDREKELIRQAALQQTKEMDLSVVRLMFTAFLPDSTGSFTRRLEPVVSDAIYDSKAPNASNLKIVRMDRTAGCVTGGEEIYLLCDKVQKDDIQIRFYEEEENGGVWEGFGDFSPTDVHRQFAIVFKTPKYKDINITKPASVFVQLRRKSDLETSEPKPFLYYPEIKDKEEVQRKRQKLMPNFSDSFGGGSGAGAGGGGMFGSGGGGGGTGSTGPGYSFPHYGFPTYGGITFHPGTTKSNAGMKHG
Method: (§4) Placentae were obtained from patients at term either at elective Caesarean section prior to labour (L−) or following spontaneous labour onset and vaginal delivery (L+). Amnion cells were prepared as described in Bennett et al., (1989). Briefly, the amnion was separated from the placenta, washed 3× in PBS, cut into strips, and incubated in 0.5 mM EDTA in PBS for 15 min. The strips were washed in PBS 2× and digested with 2.5 mg/ml dispase in serum-free DMEM for 35 min at 37° C. The amnion was then shaken vigorously in DMEM, 10% FCS to dissociate the cells, the remaining strips discarded, and the cell suspension pelleted at 175 g for 10 min and cultured in DMEM, 10% FCS (Sigma), 1% L-glutamine, 1% penicillin-streptomycin.
as §3
(§5) Sense and antisense strands (175 nmole/ml each) were incubated in annealing buffer (10 mM Tris-HCl pH7.5, 100 mM NaCl, 1 mM EDTA) for 10 min at 65° C., and allowed to cool at room temperature for 2 h. 3.5 pmole double-stranded oligonucleotides were end-labelled with 0.37 MBq ^32P(γATP) by incubating for 30 min at 37° C. with T4 polynucleotide kinase. Labelled oligonucleotides were recovered by centrifugation at 3000 rpm for 2 min through MicroSpin G-25 or G-50 sephadex columns (Amersham Biosciences).
(§6) 3-5 μg protein extracts were incubated on ice for 1 h with non-radiolabelled non-specific oligonucleotide (poly(dI-dC) or Oct-1) in a binding buffer (20% (v/V) glycerol, 5 mM MgCl2, 2 mM EDTA, 50 mM Tris-HCl pH7.5, 250 mM NaCl, 2 mM DTT), followed by a 45 min incubation with 0.035 pmole ^32P(γ(ATP)-end labelled oligonucleotide probes:
(§7) Oct-1 or SP-1 consensus sequences were used as a controls for a NF-κB-specific effect. The resulting protein/DNA complexes were separated in a 4% acrylamide gel, the gel dried under vacuum at 80° C. and exposed to X-ray film. For supershift analysis, samples were incubated with 2 μg antibodies for 30 min on ice prior to incubation with oligonucleotides. Non-radio-labelled oligonucleotides were used at 100-fold molar excess for specific and non-specific competition for DNA binding. Reagents for EMSA were obtained from Promega Life Sciences, Delta House, Chilworth Research Centre, Southampton SO16 7NS, United Kingdom.

NF-κB [3] = test: Western immunoblot of p65, p50, IκB in amnion cell extracts; type: cell-based, human; details: L−, L+ amnion cells, treated 2 h, IL-1β 15 min
Method: as §1, §4, §3
Protein samples (20-70 μg) were mixed with Laemmli sample buffer (1:1) containing β-mercaptoethanol (5%), and boiled for 5 min. Proteins were then separated by SDS-PAGE (12-14% gels) and transferred onto PVDF membrane (Amersham Pharmacia Biotech). The membranes were blocked overnight in 5% non-fat milk prepared in PBS-T buffer, at 4° C. The blots were incubated with the primary antibody in 1% non-fat milk in PBS-T buffer for 1 h, and washed three times (10 min each) in PBS-T with vigorous shaking. The blots were then incubated with HRP-conjugated secondary antibody (diluted 1:2000 in 1% non-fat milk in PBS-T buffer) for 1 h and washed three times (10 min each) in PBS-T. Signal detection was achieved using enhanced chemi-luminescence (ECL plus system, Amersham Pharmacia Biotech) according to manufacturer's instructions.
30-50 μg protein extracts were subjected to SDS-PAGE and Western immuno-blotting. Secondary antibodies were IgG-HRP and ECL Plus detection kit (Amersham Pharmacia Biotech, Amersham Place, Little Chalfont, Bucks, HP7 9NA) was used for visualisation.

NF-κB [4] = biological target: T2, NF-κB; test: EMSA of NF-κB DNA binding in nuclear extracts of treated myometrial cells; type: cell-based; details: myometrial cells; for Stimulation of NF-κB activity / induction of NFκB DNA binding by the compound alone: no cytokine; for IL-1β-induced NF-κB DNA binding (EMSA): then IL-1β 15 min
Method: as §2, §3, §5, §6, §7

NF-κB [5] = test: NF-κB-dependent luciferase reporter (κB.BG.Luc) in myometrial cells; type: cell-based, human; details: treated 2 h, IL-1β 1 ng/ml 6 h
Method: Myometrial cells were transiently transfected with the NFκB-dependent reporter construct κB.BG.Luc, treated with 15dPGJ2 or vehicle for 2 h, ±IL-1β (1 ng/ml) for 6 h. […] Values are normalised for b-gal reporter activity. (NS=nonstimulated).
Myometrial cells were transfected with […] κB.BG.Luc reporter and 200 ng PPAR-γ expression vector and treated with 15d-PGJ2 for 2 h followed by IL-1β (1 ng/ml) for 6 h. Values are normalised for β-galactosidase reporter activity. (NS=nonstimulated).
as §2
pGL3.6κB.BG.luc: a NF-κB-dependent reporter construct with 6 copies of the NF-κB binding site.
Cells were co-transfected with the renilla vector pRL-CMV or β-galactosidase vector pCH110 as internal controls for transfection efficiencies.

[6] = system: contractions of pre-term labour; details: people; cited from earlier work
[7] = system: ductus arteriosus, fetal urine output; details: in vivo; cited from earlier work
NF-κB [8] = test: NF-κB-dependent luciferase reporter (κB.BG.Luc) in myometrial cells; type: cell-based, human; details: 200 ng PPAR-γ expression vector, 10 mM troglitazone 7 h, IL-1β 17 h

For `CCCCCC=CC=C1CCC(=O)C1CC=CCCCC(=O)O` (centres unmarked) [9,10-dihydro-15d-PGJ2, 9,10-di-hydro-15-deoxy-Δ^12,14-Prostaglandin J2, reference compound], the “Reproduction of the effects of 15d-PGJ2 on NF-κB (incl. Ser 536-phosphorylated p65)” value (NF-κB [1]; 2 h, similar in amnion epithelial cells) is given as “could not reproduce the effects” and the “PPAR agonist / ligand activity” value (PPAR-γ) is given as “retains PPARγ agonist activity”.
For `CCCCC(C)(C)[C@H](O)/C=C/[C@H]1[C@H](O)CC(=O)[C@@H]1C/C=C\CCCC(=O)O` [16,16-Dimethyl-PGE2, reference compound], the “IL-1β-induced NF-κB DNA binding (EMSA)” value (NF-κB [2]; L− and L+ amnion cells, treated 2 h, then IL-1β 15 min) was “did not inhibit”, the “IL-1β-induced p65 nuclear translocation” value (NF-κB [1]; treated 2 h) was “did not inhibit” and the “IL-1β-induced p65 nuclear translocation” value (NF-κB [3]) was “did not inhibit”. The “Synergy with IL-1β or TNFα on NF-κB activity” value (NF-κB [4]) was “nor did it synergise”, the “Stimulation of NF-κB activity / induction of NFκB DNA binding by the compound alone” value (NF-κB [4]) was “neither did it stimulate” and the “IL-1β-induced NF-κB DNA binding (EMSA)” value (NF-κB [4]; treated 2 h) was “did not inhibit”.
With `CN(CCOc1ccc(C[C@H](Nc2ccccc2C(=O)c2ccccc2)C(=O)O)cc1)c1ccccn1` [GW1929, reference compound] the “IL-1β-induced NF-κB DNA binding (EMSA)” value (NF-κB [4]; treated 2 h) was “failed to inhibit” and the “IL-1β-induced NF-κB transcriptional activity (κB.BG.Luc reporter)” value (NF-κB [5]) was “does not inhibit”.
For `COc1ccc2c(c1)c(CC(=O)O)c(C)n2C(=O)c1ccc(Cl)cc1` [Indomethacin], the Tocolytic efficacy [6] is listed as “effective in preventing the contractions”.
With `CC(C)C[C@@H](C=O)NC(=O)[C@H](CC(C)C)NC(=O)[C@H](CC(C)C)NC(=O)OCc1ccccc1` [MG132, reference compound] (Cbz-Leu-Leu-Leu-aldehyde) the “Accumulation of phosphorylated IκBα” value (NF-κB [1]; 2 h) was “resulted in the accumulation”.
In the case of `CCCCC[C@H](O)/C=C/[C@H]1[C@H](O)CC(=O)[C@@H]1C/C=C\CCCC(=O)O` [PGE2, prostaglandin E2, reference compound], the “Induction of NFκB DNA binding by the compound alone” value (NF-κB [2]; L− amnion cells, no cytokine) is given as “does not induce”, the “PPAR agonist / ligand activity” value (PPAR-γ) is given as “does not activate PPAR-γ” and the “Stimulation of NF-κB activity / induction of NFκB DNA binding by the compound alone” value (NF-κB [4]) is given as “does not induce”. For the same molecule, the “TNFα- and IL-1β-induced NFκB activation (EMSA, nuclear p65)” value (NF-κB [4]; treated 2 h, TNFα or IL-1β 15 min) was “does not inhibit”.
For `CC1=C(CC(=O)O)c2cc(F)ccc2/C1=C\c1ccc([S+](C)[O-])cc1` (centres unmarked) [Sulindac], the Tocolytic efficacy [6] is given as “equally good”, the “Effect on ductal patency” value [7] is given as “minimal effect” and the Fetal urine output [7] is given as “smaller reduction”.
For `Cc1c(C)c2c(c(C)c1O)CCC(C)(COc1ccc(CC3SC(=O)NC3=O)cc1)O2` (centres unmarked) [troglitazone], the “NF-κB-dependent reporter in PPARγ-transfected cells” value (NF-κB [8]) was “does not inhibit”.
